According to patent US10913727B2, “Modulators of the integrated stress pathway” (Calico Life Sciences LLC, priority 2016, dated 2021):

System: HEK293T cells carrying the ATF4 luciferase reporter
Assay: ATF4-Luc assay, in vitro model of Vanishing Cell White Matter Disease (VWMD)
Format: cell-based
Details: Homo sapiens, HEK-293T, 1 μg/mL tunicamycin, 7 hours, One Glo luminescence
Procedure, shortened: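 Compound at 200 nM and tunicamycin at 1 μg/mL were given together for 7 h to HEK293T cells stably transduced with an ATF4 5′-UTR-driven firefly luciferase reporter. Read-out by luminescence, reported as EC50.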

O=C(COc1ccc(Cl)c(F)c1)NC12CC(NC(=O)c3cc4cccnc4s3)(C1)C2 [Compound 798, N-{3-[2-(4-chloro-3-fluorophenoxy)acetamido]bicyclo[1.1.1]pentan-1-yl}thieno[2,3-b]pyridine-2-carboxamide]
EC50: > 2000 nM

Cn1nc(C(=O)NC23CC(NC(=O)COc4ccc(Cl)c(F)c4)(C2)C3)c2c1CCC2 [Compound 877, N-{3-[2-(4-chloro-3-fluorophenoxy)acetamido]bicyclo[1.1.1]pentan-1-yl}-1-methyl-1,4,5,6-tetrahydrocyclopenta[c]pyrazole-3-carboxamide]
EC50: > 2000 nM

CCc1ncc(C(=O)NC23CC(NC(=O)COc4ccc(Cl)c(Cl)c4)(C2)C3)o1 [Compound 674, N-{3-[2-(3,4-dichlorophenoxy)acetamido]bicyclo[1.1.1]pentan-1-yl}-2-ethyl-1,3-oxazole-5-carboxamide]
EC50: < 50 nM

CCOc1ccsc1C(=O)NC12CC(NC(=O)COc3ccc(Cl)c(F)c3)(C1)C2 [Compound 551, N-{3-[2-(4-chloro-3-fluorophenoxy)acetamido]bicyclo[1.1.1]pentan-1-yl}-3-ethoxythiophene-2-carboxamide]
EC50: 50 to 250 nM

N#Cc1ccc(C(=O)NC23CCC(NC(=O)COc4ccc(Cl)c(F)c4)(CC2)CC3O)nc1 (stereo not shown) [Compound 170, N-{4-[2-(4-chloro-3-fluorophenoxy)acetamido]-2-hydroxybicyclo[2.2.2]octan-1-yl}-5-cyanopyridine-2-carboxamide]
EC50: 50 to 250 nM

Cc1oncc1C(=O)NC12CCC(NC(=O)COc3ccc(Cl)c(F)c3)(CC1)C(O)C2 (stereo not shown) [Compound 604, N-{4-[2-(4-chloro-3-fluorophenoxy)acetamido]-3-hydroxybicyclo[2.2.2]octan-1-yl}-5-methyl-1,2-oxazole-4-carboxamide]
EC50: > 2000 nM

Cc1ncc(C(=O)NC23CC(NC(=O)COc4ccc(Cl)c(F)c4)(C2)C3)s1 [Compound 285, N-{3-[2-(4-chloro-3-fluorophenoxy)acetamido]bicyclo[1.1.1]pentan-1-yl}-2-methyl-1,3-thiazole-5-carboxamide]
EC50: 50 to 250 nM

CC(C)(O)CCc1ccnc(C(=O)NC23CC(NC(=O)COc4ccc(Cl)c(F)c4)(C2)C3)c1 [Compound 432, N-{3-[2-(4-chloro-3-fluorophenoxy)acetamido]bicyclo[1.1.1]pentan-1-yl}-4-(3-hydroxy-3-methylbutyl)pyridine-2-carboxamide]
EC50: > 2000 nM

Cc1cc(C(=O)NC23CCC(NC(=O)COc4ccc(Cl)c(F)c4)(CC2)[C@H](O)C3)on1 (single isomer, unassigned) [Compound 357]
EC50: 250 to 1000 nM

N#Cc1ccc(C(=O)NC23CC(NC(=O)COc4ccc(Cl)c(F)c4)(C2)C3)s1 [Compound 885, N-{3-[2-(4-chloro-3-fluorophenoxy)acetamido]bicyclo[1.1.1]pentan-1-yl}-5-cyanothiophene-2-carboxamide]
EC50: > 2000 nM

COc1ccc(C(=O)NC23CC(NC(=O)COc4ccc(Cl)c(F)c4)(C2)C3)cc1OC [Compound 302, N-{3-[2-(4-chloro-3-fluorophenoxy)acetamido]bicyclo[1.1.1]pentan-1-yl}-3,4-dimethoxybenzamide]
EC50: > 2000 nM

O=C(COc1ccc(Cl)c(F)c1)NC12CC(NC(=O)c3coc(C(F)(F)F)c3)(C1)C2 [Compound 544, N-{3-[2-(4-chloro-3-fluorophenoxy)acetamido]bicyclo[1.1.1]pentan-1-yl}-5-(trifluoromethyl)furan-3-carboxamide]
EC50: < 50 nM

Cc1noc(C(=O)NC23CC(NC(=O)COc4ccc(Cl)c(F)c4)(C2)C3)n1 [Compound 375, N-{3-[2-(4-chloro-3-fluorophenoxy)acetamido]bicyclo[1.1.1]pentan-1-yl}-3-methyl-1,2,4-oxadiazole-5-carboxamide]
EC50: 50 to 250 nM

CCc1cc(C(=O)NC23CCC(NC(=O)COc4ccc(Cl)c(F)c4)(CC2)C(O)C3)no1 (stereo not shown) [Compound 606, N-{4-[2-(4-chloro-3-fluorophenoxy)acetamido]-3-hydroxybicyclo[2.2.2]octan-1-yl}-5-ethyl-1,2-oxazole-3-carboxamide]
EC50: 50 to 250 nM

O=C(COc1ccc(Cl)c(F)c1)NC12CC(Nc3cnn(CC(F)(F)F)c(=O)c3Cl)(C1)C2 [Compound 416, 2-(4-chloro-3-fluorophenoxy)-N-(3-{[5-chloro-6-oxo-1-(2,2,2-trifluoroethyl)-1,6-dihydropyridazin-4-yl]amino}bicyclo[1.1.1]pentan-1-yl)acetamide]
EC50: > 2000 nM

Cn1ccnc1C(=O)NC12CC(NC(=O)COc3ccc(Cl)c(F)c3)(C1)C2 [Compound 904, N-{3-[2-(4-chloro-3-fluorophenoxy)acetamido]bicyclo[1.1.1]pentan-1-yl}-1-methyl-1H-imidazole-2-carboxamide]
EC50: > 2000 nM

O=C(COc1ccc(Cl)c(Cl)c1)NC12CC(NC(=O)c3csc(C(F)(F)F)n3)(C1)C2 [Compound 676, N-{3-[2-(3,4-dichlorophenoxy)acetamido]bicyclo[1.1.1]pentan-1-yl}-2-(trifluoromethyl)-1,3-thiazole-4-carboxamide]
EC50: < 50 nM

O=C(COc1ccc(Cl)c(F)c1)NC12CC(NC(=O)c3cnco3)(C1)C2 [Compound 573, N-{3-[2-(4-chloro-3-fluorophenoxy)acetamido]bicyclo[1.1.1]pentan-1-yl}-1,3-oxazole-5-carboxamide]
EC50: 1000 to 2000 nM

O=C(COc1ccc(Cl)c(F)c1)NC12CCC(NC(=O)c3cccc(CO)n3)(CC1)CC2O (stereo not shown) [Compound 945, N-{4-[2-(4-chloro-3-fluorophenoxy)acetamido]-3-hydroxybicyclo[2.2.2]octan-1-yl}-6-(hydroxymethyl)pyridine-2-carboxamide]
EC50: > 2000 nM

O=C(COc1ccc(Cl)cc1)NC12CC(NC(=O)c3ccc(OC(F)(F)F)nc3)(C1)C2 [Compound 570, N-{3-[2-(4-chlorophenoxy)acetamido]bicyclo[1.1.1]pentan-1-yl}-6-(trifluoromethoxy)pyridine-3-carboxamide]
EC50: 50 to 250 nM

CCCCc1ccc(C(=O)NC23CC(NC(=O)COc4ccc(Cl)c(F)c4)(C2)C3)nc1 [Compound 135, 5-butyl-N-{3-[2-(4-chloro-3-fluorophenoxy)acetamido]bicyclo[1.1.1]pentan-1-yl}pyridine-2-carboxamide]
EC50: 50 to 250 nM

COC/C=C/c1cnc(C(=O)NC23CC(NC(=O)COc4ccc(Cl)c(F)c4)(C2)C3)cn1 [Compound 171, N-{3-[2-(4-chloro-3-fluorophenoxy)acetamido]bicyclo[1.1.1]pentan-1-yl}-5-[(1E)-3-methoxyprop-1-en-1-yl]pyrazine-2-carboxamide]
EC50: 50 to 250 nM

O=C(COc1ccc(Cl)c(F)c1)NC12CC(NC(=O)c3ncc(F)cc3F)(C1)C2 [Compound 910, N-{3-[2-(4-chloro-3-fluorophenoxy)acetamido]bicyclo[1.1.1]pentan-1-yl}-3,5-difluoropyridine-2-carboxamide]
EC50: 50 to 250 nM

Cc1ccc(C(=O)NC23CC(NC(=O)COc4ccc(Cl)c(F)c4)(C2)C3)nc1 [Compound 146, N-{3-[2-(4-chloro-3-fluorophenoxy)acetamido]bicyclo[1.1.1]pentan-1-yl}-5-methylpyridine-2-carboxamide]
EC50: 50 to 250 nM

CCc1cc(C(=O)NC23CCC(NC(=O)COc4ccc(Cl)c(Cl)c4)(CC2)[C@@H](O)C3)on1 [Compound 694, N-{(3S)-4-[2-(3,4-dichlorophenoxy)acetamido]-3-hydroxybicyclo[2.2.2]octan-1-yl}-3-ethyl-1,2-oxazole-5-carboxamide]
EC50: < 50 nM
